Assay results taken from ChEMBL document CHEMBL5154887, “Novel CRBN-Recruiting Proteolysis-Targeting Chimeras as Degraders of Stimulator of Interferon Genes with In Vivo Anti-Inflammatory Efficacy” (J Med Chem, 2022).
The source made the active and inactive calls. The calls are words filed in the database; no cut-off is given here.

Columns and labels:
[1] = AUC (0 to t) in Sprague-Dawley rat at 2 mg/kg, iv measured upto 48 hrs by UPLC-triple quadrupole MS analysis; format: ADME, organism-based; set-up: time < 48 hrs, dose 2 mg/kg, route iv; conditions: in vivo
[2] = MRT (0 to infinity) in Sprague-Dawley rat at 2 mg/kg, iv measured upto 48 hrs by UPLC-triple quadrupole MS analysis; format: ADME, organism-based; conditions: in vivo
[3] = MRT (0 to t) in Sprague-Dawley rat at 2 mg/kg, iv measured upto 48 hrs by UPLC-triple quadrupole MS analysis; format: ADME, organism-based; conditions: in vivo
[4] = AUC (0 to infinity) in Sprague-Dawley rat at 2 mg/kg, iv measured upto 48 hrs by UPLC-triple quadrupole MS analysis; format: ADME, organism-based; set-up: time < 48 hrs, dose 2 mg/kg, route iv; conditions: in vivo
[5] = (§1) In vivo inhibition of STING signalling pathway in cisplatin-induced acute kidney injury in C57BL/6J mouse model assessed as reduction in STING protein expression in kidney at 30 mg/kg, ip pretreated for 1 hr followed by cisplatin administration and measured after 72 hrs by Western blot analysis (Rvb= 375%); format: functional; set-up: scale not given: the % may be the effect or the level left; conditions: time 73 hrs
[6] = Renal toxicity in C57BL/6J mouse assessed as reduction in BUN level at 30 mg/kg, ip (Rvb= 8.9 mmol/L); format: organism-based; conditions: in vivo
[7] = biological target: T1, Protein cereblon/Stimulator of interferon genes protein (Homo sapiens, UniProt Q96SW2+Q86WV6); experiment: Protac activity at CRBN/STING in human THP-1 cells assessed as increase in STING degradation at 10 uM incubated for 48 hrs by Western blot analysis relative to control; format: cell-based
Target sequence in this assay (Q86WV6 whole entry, looked up): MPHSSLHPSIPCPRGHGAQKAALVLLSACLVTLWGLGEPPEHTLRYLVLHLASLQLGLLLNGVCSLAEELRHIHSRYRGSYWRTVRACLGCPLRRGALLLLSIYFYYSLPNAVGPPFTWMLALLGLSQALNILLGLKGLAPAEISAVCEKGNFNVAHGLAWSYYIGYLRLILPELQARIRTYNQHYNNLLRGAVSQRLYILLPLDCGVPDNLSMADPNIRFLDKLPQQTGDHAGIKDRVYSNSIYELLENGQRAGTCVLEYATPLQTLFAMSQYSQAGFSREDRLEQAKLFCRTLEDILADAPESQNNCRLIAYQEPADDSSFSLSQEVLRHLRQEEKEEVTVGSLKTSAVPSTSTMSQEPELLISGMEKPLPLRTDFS
Target sequence in this assay (Q96SW2 whole entry, looked up): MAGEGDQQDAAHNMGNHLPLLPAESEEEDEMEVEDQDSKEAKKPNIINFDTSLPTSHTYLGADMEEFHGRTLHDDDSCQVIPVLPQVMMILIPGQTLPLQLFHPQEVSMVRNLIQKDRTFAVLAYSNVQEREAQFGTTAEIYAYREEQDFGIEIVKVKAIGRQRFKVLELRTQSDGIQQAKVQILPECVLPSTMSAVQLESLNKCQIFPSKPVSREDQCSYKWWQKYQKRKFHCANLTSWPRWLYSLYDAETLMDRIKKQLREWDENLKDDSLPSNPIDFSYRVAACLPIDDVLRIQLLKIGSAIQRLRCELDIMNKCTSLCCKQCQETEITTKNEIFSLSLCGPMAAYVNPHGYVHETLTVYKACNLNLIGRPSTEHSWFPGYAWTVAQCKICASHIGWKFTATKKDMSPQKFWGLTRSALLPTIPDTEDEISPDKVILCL

[8] = biological target: T1, Protein cereblon/Stimulator of interferon genes protein; experiment: Protac activity at CRBN/STING in human THP-1 cells assessed as increase in STING degradation incubated for 48 hrs by Western blot analysis; format: cell-based
Target sequence in this assay (Q96SW2 whole entry): as the sequence (Q96SW2 whole entry, looked up) above
Target sequence in this assay (Q86WV6 whole entry): as the sequence (Q86WV6 whole entry, looked up) above

[9] = biological target: T1, Protein cereblon/Stimulator of interferon genes protein; experiment: Protac activity at CRBN/STING in human THP-1 cells assessed as increase in STING degradation at 10 uM pretreated with lysosome inhibitor BAF for 1 hr followed by compound addition and measured after 48 hrs by Western blot analysis; format: cell-based
Target sequence in this assay (Q86WV6 whole entry, looked up): as above
Target sequence in this assay (Q96SW2 whole entry, looked up): as the sequence (Q96SW2 whole entry, looked up) above

[10] = system: THP-1; experiment: Inhibition of cGAS-STING signalling pathway in human THP-1 cells assessed as downregulation of cGAMP-triggered IFN-beta expression preincubated for 2 hrs followed by cGAMP stimulation and measured after 24 hrs by ELISA; format: cell-based; conditions: dose 2.5-20 µM, time 26.0 hrs, DDE = dose-dependent effect
[11] = system: THP-1; experiment: Inhibition of cGAS-STING signalling pathway in human THP-1 cells assessed as downregulation of cGAMP-triggered IL-6 expression preincubated for 2 hrs followed by cGAMP stimulation and measured after 24 hrs by ELISA; format: cell-based; conditions: dose 2.5-20 µM, time 26.0 hrs, DDE = dose-dependent effect
[12] = system: THP-1; experiment: Inhibition of cGAS-STING signalling pathway in human THP-1 cells assessed as downregulation of cGAMP-triggered CXCL10 expression preincubated for 2 hrs followed by cGAMP stimulation and measured after 24 hrs by ELISA; format: cell-based; conditions: dose 2.5-20 µM, time 26.0 hrs, DDE = dose-dependent effect
[13] = biological target: Stimulator of interferon genes protein (Homo sapiens) (UniProt Q86WV6); experiment: Inhibition of STING pathway in human THP-1 cells assessed as inhibition of cGAMP-triggered pTBK1 expression preincubated for 2 hrs followed by cGAMP stimulation and measured after 24 hrs by Western blot analysis; format: cell-based; conditions: dose 0-20 µM, time 26.0 hrs, DDE = dose-dependent effect
[14] = system: L02; experiment: Cytotoxicity against human L02 cells assessed as reduction in cell viability at <10 uM by MTT assay; format: toxicity, cell-based; conditions: l02, 10 µM
[15] = Cytotoxicity against HEK293-A cells assessed as reduction in cell viability at <10 uM by MTT assay; format: toxicity, cell-based; conditions: human
[16] = Cytotoxicity against mouse C17.2 cells assessed as reduction in cell viability at <10 uM by MTT assay; format: toxicity, cell-based; conditions: c17.2, 10 µM
[17] = Cytotoxicity against HEK293-A cells assessed as cell growth inhibition at 30 uM by MTT assay relative to control; format: toxicity, cell-based; conditions: human
[18] = Cytotoxicity against mouse C17.2 cells assessed as cell growth inhibition at 30 uM by MTT assay relative to control; format: toxicity, cell-based
[19] = system: Mus musculus; experiment: Antiinflammatory activity against cisplatin-induced acute kidney injury in C57BL/6J mouse model assessed as reduction in kidney weight at 30 mg/kg, ip pretreated for 1 hr followed by cisplatin administration and measured after 72 hrs relative to control; format: functional; set-up: scale not given: the % may be the effect or the level left; conditions: time 73 hrs
[20] = system: Mus musculus; experiment: Antiinflammatory activity against cisplatin-induced acute kidney injury in C57BL/6J mouse model assessed as reduction in kidney weight at 60 mg/kg, ip pretreated for 1 hr followed by cisplatin administration and measured after 72 hrs relative to control; format: functional; set-up: scale not given: the % may be the effect or the level left; conditions: time 73 hrs
[21] = Toxicity in C57BL/6J mouse model of cisplatin-induced acute kidney injury assessed as survival rate at 60 mg/kg, ip pretreated for 1 hr followed by cisplatin administration and measured after 72 hrs relative to control; format: organism-based; conditions: in vivo, 73 h
[22] = Toxicity in C57BL/6J mouse assessed as body weight loss at 30 mg/kg, ip measured after 4 days relative to control; format: organism-based; conditions: in vivo, 96 h, time 4 day
[23] = Toxicity in C57BL/6J mouse assessed as body weight loss at 60 mg/kg, ip measured after 4 days relative to control; format: organism-based; conditions: in vivo, 96 h, time 4 day
[24] = Renal toxicity in C57BL/6J mouse assessed as reduction in BUN level at 60 mg/kg, ip (Rvb= 8.9 mmol/L); format: organism-based; conditions: in vivo
[25] = Renal toxicity in C57BL/6J mouse assessed as reduction in creatinine level at 30 mg/kg, ip (Rvb= 8.5 umol/L); format: organism-based; conditions: in vivo
[26] = Renal toxicity in C57BL/6J mouse assessed as reduction in creatinine level at 60 mg/kg, ip (Rvb= 8.5 umol/L); format: organism-based; conditions: in vivo
[27] = Apparent volume of distribution in Sprague-Dawley rat at 2 mg/kg, iv measured upto 48 hrs by UPLC-triple quadrupole MS analysis; format: ADME, organism-based; conditions: in vivo, read-out: Vz
[28] = as §1, with “60” for “30”; format: functional; set-up: scale not given: the % may be the effect or the level left; conditions: time 73 hrs
[29] = system: Mus musculus; experiment: In vivo inhibition of STING signalling pathway in ip dosed cisplatin-induced acute kidney injury in C57BL/6J mouse model assessed as reduction in IFN-beta expression in blood of mouse eyeballs pretreated for 1 hr followed by cisplatin administration and measured after 72 hrs by ELISA; format: functional, organism-based; conditions: time 73.0 hrs, DDE = dose-dependent effect
[30] = system: Mus musculus; experiment: In vivo inhibition of STING signalling pathway in ip dosed cisplatin-induced acute kidney injury in C57BL/6J mouse model assessed as reduction in CXCL10 expression in blood of mouse eyeballs pretreated for 1 hr followed by cisplatin administration and measured after 72 hrs by ELISA; format: functional, organism-based; conditions: time 73.0 hrs, DDE = dose-dependent effect

Stimulator of interferon genes protein (Homo sapiens), sequence (Q86WV6 whole entry): as the sequence (Q86WV6 whole entry, looked up) above

Structure (SMILES): O=C(/C=C/C(=O)Nc1ccc(NC(=O)c2ccc([N+](=O)[O-])o2)cc1)NCCCCCCNc1cccc2c1C(=O)N(C1CCC(=O)NC1=O)C2=O (stereo not given)
- AUC(0-t) at 48 h [1]: 257 ng·h/mL
- MRT inf [2]: 1.95 h
- MRT last at 48 h [3]: 1.74 h
- AUC(0-inf) [4]: 259 ng·h/mL
- Activity [5]: 150%
- Activity [6]: 27.2 mmol/L
- Activity [7]: 76%
- DC50 [8]: 3.2 µM
- Activity [9]: Active
- Activity [10]: Dde
- Activity [11]: Dde
- Activity [12]: Dde
- inhibition [13]: Dde
- Activity [14]: Non-Toxic
- Activity [15]: Non-Toxic
- Activity [16]: Non-Toxic
- inhibition at 30 µM [17]: 11%
- inhibition at 30 µM [18]: 15.6%
- Activity [19]: 14%
- Activity [20]: 26%
- Survival [21]: 100%
- Activity [22]: 13%
- Activity [23]: 9%
- Activity [24]: 16.3 mmol/L
- Activity [25]: 26.8 µmol/L
- Activity [26]: 14.8 µmol/L
- Vd [27]: 38 L/kg
- Activity [28]: 70%
- inhibition [29]: Dde
- inhibition [30]: Dde
